Consider three molecules from US6461997B1, “Triazole sulfones having herbicidal activity” (Monsanto Technology LLC, priority 1999, dated 2002).

The subject of assay [1] is CHEAL (common lambsquarters). The assay can be described thus: Pre-emergence herbicidal activity, warm season. The class given is in vivo, Chenopodium album. The following applies: GR80 = lowest tested rate (300, 100, 30, 10 g/ha) with 80% or greater inhibition; approx. 14 days after treating; 30/21° C. The gist of the method: (§1)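 GR80 values derive from percent inhibition relative to untreated plants, read roughly 14 days after sowing and pre-emergence soil-surface treatment (compound in 50:50 acetone/water; rates typically 10, 30, 100, 300 g/ha). Warm-season weeds grew at 30/21° C day/night, cool-season ones at 18/13° C; an asterisk marks activity without reaching 80% at the highest rate.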

Assay [2] concerns ECHCG (barnyardgrass). The assay is described as follows: Pre-emergence herbicidal activity, warm season. It counts as in vivo, Echinochloa crus-galli. The following applies: GR80 = lowest tested rate (300, 100, 30, 10 g/ha) with 80% or greater inhibition; approx. 14 days after treating; 30/21° C. The gist of the method: (§2)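 Seeds sown in sterilised fertilised topsoil received surface-applied compound in 50:50 acetone/water, typically at 300, 100, 30 and 10 g/ha, then greenhouse-grown at 30/21° C (warm-season species) or 18/13° C (cool-season species). Percent inhibition versus untreated plants was scored at about 14 days, giving GR80; an asterisk marks activity short of 80% at the top rate.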

The subject of assay [3] is SORHA (johnsongrass (seedling)). The assay is described as follows: Pre-emergence herbicidal activity, warm season. It counts as in vivo, Sorghum halepense. As to conditions: GR80 = lowest tested rate (300, 100, 30, 10 g/ha) with 80% or greater inhibition; approx. 14 days after treating; 30/21° C. The gist of the method:
as §2

For assay [4], the system named is SASKR (russian thistle). The assay can be described thus: Pre-emergence herbicidal activity, cool season. It counts as in vivo, Salsola kali. As to conditions: lowest tested rate with 80% or greater inhibition; rates 300, 100, 30, 10 g/ha; about 14 days. Summed up: as §1
In assay [5] the test system is SETVI (green foxtail). The assay can be described thus: Pre-emergence herbicidal activity, cool season. The class given is in vivo, Setaria viridis. As to conditions: GR80 = lowest tested rate (300, 100, 30, 10 g/ha) with 80% or greater inhibition; approx. 14 days after treating; 18/13° C. Summed up: as §1
The subject of assay [6] is SOLNI (black nightshade). The assay is described as follows: Pre-plant incorporated (PPI) herbicidal activity, warm season. As to conditions: PPI application. The class given is in vivo, Solanum nigrum. Here is the method: (§3) In another set of tests, the pre-plant incorporated (PPI) activity of compounds of this invention was evaluated on the same species as for the pre-emergence tests described above. In the PPI tests the following procedure, designed to simulate PPI application, was used.
(§4) A pre-prepared topsoil mixture (described above) was placed in a pot and compacted to a depth of 1.0 to 1.25 cm from the top of the pot. Seeds of each of several monocotyledonous and dicotyledonous annual plant species were placed on top of the soil. A sufficient quantity of soil to cover the seeds and level fill the pot was weighed into an open container. A known amount of the test compound was dissolved or suspended in an organic solvent and applied by spraying to this cover soil. The cover soil was thoroughly mixed to distribute the test compound throughout the cover soil, and was then applied as a cover layer over the seeds. Untreated soil was used as a cover layer for control pots. After treatment the plants were placed in a greenhouse where they received 0.64 cm of overhead irrigation. All subsequent watering consisted of a light overhead mist and/or subirrigation as needed for germination and growth. Tables 9 and 10 below relate to warm season plant species which were placed after pre-emergence treatment in a greenhouse with a 30/21° C. day/night temperature regime. Tables 11 and 12 below relates to cool season plant species placed after pre-emergence treatment in a greenhouse or growth chamber with an 18/13° C. day/night temperature regime. Only the compounds of Examples 1, 6, 8, 11, 13 and 15-20 were included in PPI tests.
(§5) Approximately 14 days after planting and treating, the plants were observed and herbicidal efficacy recorded as percent inhibition by comparison with untreated plants.

The subject of assay [7] is DATST (jimsonweed). The description is as above. The class given is in vivo, Datura stramonium. As to conditions: PPI application. The procedure: as §3, §4, §5

As for `CCN(CC)C(=O)n1cnc(S(=O)(=O)C(F)(F)F)n1` [Example 2], the “Pre-emergence activity (GR80) CHEAL” value in assay [1] was found to be 100 g/ha. Besides, the “Pre-emergence activity (GR80) ECHCG” value in assay [2] turned out to be 30 g/ha. For the same molecule, in assay [3], the “Pre-emergence activity (GR80) SORHA” value was determined as 100 g/ha. For the same molecule, the “Pre-emergence activity GR80, SASKR” value in assay [4] stood at 100 g/ha. Besides, in assay [5], the “Pre-emergence activity (GR80) SETVI” value was determined as 30 g/ha. Further, the “Percent inhibition SOLNI” value came out at 30% in assay [6] (30 g/ha), 90% in assay [6] (100 g/ha), 100% in assay [6] (300 g/ha) and 90% in assay [6] (900 g/ha). The “Percent inhibition DATST” value in assay [7] (30 g/ha) came out at 0%; in assay [7] (100 g/ha), 10%; in assay [7] (300 g/ha), 80%; in assay [7] (900 g/ha), 70%.
For the molecule `CCN(CC)C(=O)n1cnc(S(=O)(=O)C(F)(F)Cl)n1` [Example 3], in assay [1], the “Pre-emergence activity (GR80) CHEAL” value came out at 100 g/ha. For the same molecule, the “Pre-emergence activity (GR80) ECHCG” value in assay [2] is 30 g/ha. For the same molecule, the “Pre-emergence activity (GR80) SORHA” value in assay [3] is 100 g/ha. For the same molecule, the “Pre-emergence activity GR80, SASKR” value in assay [4] was “[empty]”. In addition, the “Pre-emergence activity (GR80) SETVI” value in assay [5] came to 100 g/ha. The “Percent inhibition SOLNI” value in assay [6] (30 g/ha) is on record as 70%; in assay [6] (100 g/ha), 100%; in assay [6] (300 g/ha), 100%; in assay [6] (900 g/ha), 100%. Moreover, the “Percent inhibition DATST” value in assay [7] (30 g/ha) turned out to be 0%; in assay [7] (100 g/ha), 30%; in assay [7] (300 g/ha), 70%; in assay [7] (900 g/ha) it was 100%.
In the case of `CCN(CC)C(=O)n1cnc(S(=O)(=O)C(F)(F)C(F)(F)Br)n1` [Example 4], in assay [1], the “Pre-emergence activity (GR80) CHEAL” value is 30 g/ha. The “Pre-emergence activity (GR80) ECHCG” value in assay [2] is on record as 100 g/ha. Moreover, the “Pre-emergence activity (GR80) SORHA” value in assay [3] came out at 30 g/ha. Besides, in assay [4], the “Pre-emergence activity GR80, SASKR” value worked out at 30 g/ha. Besides, the “Pre-emergence activity (GR80) SETVI” value in assay [5] is reported as 30 g/ha. In addition, the “Percent inhibition SOLNI” value in assay [6] (30 g/ha) is on record as 60%; in assay [6] (100 g/ha) it was 95%; in assay [6] (300 g/ha), 100%; in assay [6] (900 g/ha), 100%. Besides, the “Percent inhibition DATST” value in assay [7] (30 g/ha) is on record as 0%; in assay [7] (100 g/ha), 0%; in assay [7] (300 g/ha) it was 40%; in assay [7] (900 g/ha) it was 75%.
